Laboratory results: patent US20240228482A1, “COMPOUNDS, COMPOSITIONS AND METHODS OF TREATING CANCER” (HOTSPOT THERAPEUTICS, INC., priority 2021, published 2024)

What follows are compounds tested against T1, CBL-B (Homo sapiens, UniProt Q13191) (assay: CBL-B TR-FRET IC50 screening (E1/E2 ubiquitination, Biotin-Ubiquitin, Anti GST-Tb donor / Streptavidin-d2 acceptor)). Settings: CBL-B 10 nM final; 11-point titration from 100 uM; binned A-F; read-out: CBL-B TR-FRET activity IC50.
T1 construct: GST
T1 sequence (Q13191 whole entry): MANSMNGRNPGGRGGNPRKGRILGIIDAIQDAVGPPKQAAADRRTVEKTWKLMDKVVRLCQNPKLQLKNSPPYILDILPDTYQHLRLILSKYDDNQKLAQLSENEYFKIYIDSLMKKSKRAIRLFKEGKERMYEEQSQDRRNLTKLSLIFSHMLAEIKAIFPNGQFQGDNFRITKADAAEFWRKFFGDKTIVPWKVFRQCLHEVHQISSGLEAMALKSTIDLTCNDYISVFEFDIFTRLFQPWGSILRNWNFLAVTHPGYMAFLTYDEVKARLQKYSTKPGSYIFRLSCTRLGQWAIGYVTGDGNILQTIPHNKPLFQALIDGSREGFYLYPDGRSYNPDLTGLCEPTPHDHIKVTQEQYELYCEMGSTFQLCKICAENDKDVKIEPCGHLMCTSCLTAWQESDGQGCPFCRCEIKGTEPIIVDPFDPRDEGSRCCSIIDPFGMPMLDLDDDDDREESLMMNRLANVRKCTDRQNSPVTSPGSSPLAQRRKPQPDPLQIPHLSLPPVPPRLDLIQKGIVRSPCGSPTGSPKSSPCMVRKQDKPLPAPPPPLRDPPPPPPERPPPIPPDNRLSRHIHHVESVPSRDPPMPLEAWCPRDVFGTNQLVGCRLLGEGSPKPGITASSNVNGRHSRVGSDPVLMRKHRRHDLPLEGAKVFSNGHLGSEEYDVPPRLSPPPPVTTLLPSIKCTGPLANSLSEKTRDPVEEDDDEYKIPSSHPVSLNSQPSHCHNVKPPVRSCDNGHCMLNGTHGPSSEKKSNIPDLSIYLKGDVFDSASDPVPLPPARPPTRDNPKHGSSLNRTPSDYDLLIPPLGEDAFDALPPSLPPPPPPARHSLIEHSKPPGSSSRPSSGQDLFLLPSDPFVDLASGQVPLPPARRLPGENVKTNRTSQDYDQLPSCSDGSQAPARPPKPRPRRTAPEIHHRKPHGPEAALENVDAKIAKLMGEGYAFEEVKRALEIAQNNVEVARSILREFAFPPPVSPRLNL
Assay type: biochemical

Structure (SMILES)	IC50 [nM]
Cn1cnnc1[C@H](c1cccc(-n2cc3c(C(F)(F)F)cc(CN4CCC5(CC5)C4)cn3c2=O)c1)C1CCC1 (single isomer, unassigned) [Compound 162]	1000 to 3000
Cn1cnnc1CC1(c2cccc(-n3cc4c(Cl)cc(CN5CCC6(CC6)C5)cn4c3=O)c2)COC1 (single isomer, unassigned) [Compound 67]	< 100
Cn1cnnc1[C@]1(c2cccc(-n3cc4c(C(F)(F)F)cc(CN5CCC(C)(F)CC5)cn4c3=O)c2)C[C@H](C)C1 (single isomer, unassigned) [Compound 227]	< 100
COCCNCc1cc(C(F)(F)F)c2cn(-c3cccc(C4(Cc5nncn5C)COC4)c3)c(=O)n2c1 [Compound 50]	< 100
C[C@H]1CCCN(Cc2cc(C(F)(F)F)c3cn(-c4cccc([C@]5(c6nncn6C)C[C@@H](O)C5)c4)c(=O)n3c2)C1 [Compound 255]	< 100
CN(Cc1cc(C(F)(F)F)c2cn(-c3cccc([C@H](c4nncn4C)C4CCC4)c3)c(=O)n2c1)Cc1cncs1 [Compound 275]	< 100
O=c1n(-c2cccc(C3(Cc4nnc5n4CCC5)COC3)c2)cc2c(C(F)(F)F)cccn12 [Compound 210]	> 10000
CO[C@H]1CCCN(Cc2cc(C(F)(F)F)c3cn(-c4cccc(C5(Cc6nncn6C)COC5)c4)c(=O)n3c2)C1 [Compound 123]	< 100
C[C@H]1CCCN(Cc2cc(C(F)(F)F)c3cn(-c4cccc([C@H](c5nncs5)C5CCC5)c4)c(=O)n3c2)C1 (single isomer, unassigned) [Compound 202]	< 100
[2H]C([2H])([2H])n1cnnc1C1(c2cccc(-n3cc4c(C(F)(F)F)cc(CN5CCC[C@H](C)C5)cn4c3=O)c2)CC2(CC2)C1 [Compound 102]	< 100
Cn1cnnc1[C@@H](c1cccc(-n2cc3c(C(F)(F)F)cc(CN4CC5(CCC5)C4)cn3c2=O)c1)C1CCC1 [Compound 286]	< 100
Cc1c[nH]nc1[C@@H](c1cccc(-n2cc3c(C(F)(F)F)cc(CN4CCC[C@H](C)C4)cn3c2=O)c1)C1CCC1 [Compound 219]	< 100
CO[C@@H]1CCCN(Cc2cc(C(F)(F)F)c3cn(-c4cccc([C@H](c5nncn5C)C5CCC5)c4)c(=O)n3c2)C1 [Compound 251]	< 100
Cn1cnnc1CC1(c2cccc(-n3cc4c(C(F)(F)F)cc(CN5CC6(CC6)C5)cn4c3=O)c2)COC1 [Compound 21]	< 100
Cn1cnnc1[C@@H](c1cccc(-n2cc3c(C(F)(F)F)cc(CNCC4COC4)cn3c2=O)c1)C1CCC1 [Compound 322]	< 100
Cn1cnnc1CC1(c2cccc(-n3cc4c(C(F)(F)F)cc(CN5CCCC(O)C5)cn4c3=O)c2)COC1 (centres unmarked) [Compound 206]	301 to 1000
C[C@@H](Sc1nncn1C)c1cccc(-n2cc3c(C(F)(F)F)cccn3c2=O)c1 [Compound 5]	> 10000
Cn1cnnc1[C@@H](c1cccc(-n2cc3c(C(F)(F)F)cc(CN4CC(C(F)(F)F)C4)cn3c2=O)c1)C1CCC1 [Compound 313]	< 100
C[C@H]1CCCN(Cc2cc(C(F)(F)F)c3cn(-c4cccc([C@]5(c6nncs6)C[C@@H](C)C5)c4)c(=O)n3c2)C1 (single isomer, unassigned) [Compound 292]	100 to 300
Cn1cnnc1CC1(c2cccc(-n3cc4c(C(F)(F)F)cc(CN5CC6(CCO6)C5)cn4c3=O)c2)COC1 [Compound 131]	< 100
CC(c1cc(C(F)(F)F)c2cn(-c3cccc(C4(Cc5nncn5C)COC4)c3)c(=O)n2c1)N1CCC[C@H](C)C1 (single isomer, unassigned) [Compound 120]	< 100
Cn1cnnc1CC1(c2cccc(-n3cc4c(C(F)(F)F)cc(C5=CCNC5)cn4c3=O)c2)COC1 [Compound 64]	1000 to 3000

More lines, now with the values ahead:

IC50 [nM]	Structure (SMILES)
> 10000	C[C@H]1CCCN(Cc2cc(C(F)(F)F)c3cn(-c4cccc([C@@H](c5nncn5C)[C@H]5C[C@@H](CO)C5)c4)c(=O)n3c2)C1 (single isomer, unassigned) [Compound 353]
< 100	CC1CCN(Cc2cc(C(F)(F)F)c3cn(-c4cccc([C@H](c5nncn5C)C5CCC5)c4)c(=O)n3c2)CC1 [Compound 376]
< 100	C[C@@H]1CCCN1Cc1cc(C(F)(F)F)c2cn(-c3cccc([C@H](c4nncn4C)C4CCC4)c3)c(=O)n2c1 [Compound 381_P2]

Same assay, conditions: second part of Table 2 (head 'Patent Cmpd No / Updated Activity'); same CBL-B TR-FRET IC50 bins A-F; read-out: Updated Activity

IC50 [nM]	Structure (SMILES)
> 10000	CC(C)n1cnnc1[C@@H](c1cccc(-n2cc3c(C(F)(F)F)cc(CN4CCC[C@H](C)C4)cn3c2=O)c1)C1CCC1 (single isomer, unassigned) [Compound 425]
> 10000	C[C@H]1CCCN(Cc2cc(C(F)(F)F)c3cn(-c4cccc([C@@H](c5nncn5C)C5CN(C)C5)c4)c(=O)n3c2)C1 [Compound 470_P2]
> 10000	C[C@H]1CCCN(Cc2cc(C(F)(F)F)c3cn(-c4cccc([C@H](c5nncn5C)[C@H]5C[C@](C)(O)C5)c4)c(=O)n3c2)C1 (single isomer, unassigned) [Compound 575]
> 10000	[2H]C([2H])(c1cc(C(F)(F)F)c2cn(-c3cccc([C@@H](c4nncn4C)C4COC4)c3)c(=O)n2c1)N1CCC[C@H](C)C1 [Compound 565_P1]
< 100	CN1CC[C@]2(CCN(Cc3cc(C(F)(F)F)c4cn(-c5cccc([C@H](c6nncn6C)C6CCC6)c5)c(=O)n4c3)C2)C1=O (single isomer, unassigned) [Compound 621]
301 to 1000	Cn1cnnc1[C@H](c1cc(-c2cnn[nH]2)cc(-n2cc3c(C(F)(F)F)cccn3c2=O)c1)C1CCC1 [Compound 535]
< 100	COC(=O)N(C)Cc1cc(C(F)(F)F)c2cn(-c3cccc([C@H](c4nncn4C)C4CCC4)c3)c(=O)n2c1 [Compound 469]
> 10000	C[C@H]1CCCN(Cc2cc(C(F)(F)F)c3cn(-c4cccc([C@H](c5nncn5C(F)F)C5CCC5)c4)c(=O)n3c2)C1 (single isomer, unassigned) [Compound 462]
1000 to 3000	Cn1cnnc1[C@@H](c1cc(F)cc(-n2cc3c(C(F)(F)F)cc(CN4CC5(CC5)C4)cn3c2=O)c1)C1CCC1 (single isomer, unassigned) [Compound 533]
< 100	C[C@H]1CN(Cc2cc(C(F)(F)F)c3cn(-c4cccc([C@H](c5nncn5C)C5CCC5)c4)c(=O)n3c2)CC[C@@H]1O (single isomer, unassigned) [Compound 588]
> 10000	CNC(=O)CCc1cc([C@H](c2nncn2C)C2CCC2)cc(-n2cc3c(C(F)(F)F)cccn3c2=O)c1 (single isomer, unassigned) [Compound 559]
100 to 300	COC(=O)N1CCC[C@@H](c2cc(C(F)(F)F)c3cn(-c4cccc([C@H](c5nncn5C)C5CCC5)c4)c(=O)n3c2)C1 (single isomer, unassigned) [Compound 394]
< 100	CO[C@H]1C[C@](c2cccc(-n3cc4c(C(F)(F)F)cc([C@H](C)N5CCC[C@H](C)C5)cn4c3=O)c2)(c2nncn2C)C1 (single isomer, unassigned) [Compound 605]
100 to 300	CC(=O)N1CCC[C@@H](c2cc(C(F)(F)F)c3cn(-c4cccc([C@H](c5nncn5C)C5CCC5)c4)c(=O)n3c2)C1 (single isomer, unassigned) [Compound 397]
< 100	COC(=O)CCN(C)Cc1cc(C(F)(F)F)c2cn(-c3cccc([C@H](c4nncn4C)C4CCC4)c3)c(=O)n2c1 [Compound 596]
> 10000	C[C@H]1CCCN(Cc2cc(C(F)(F)F)c3cn(-c4cccc([C@H](c5nncn5C)C5CN(C)C5)c4)c(=O)n3c2)C1 [Compound 470_P1]
